The values below come from publication PMC7650622, “3D-Printed Bubble-Free Perfusion Cartridge System for Live-Cell Imaging” (Sensors (Basel, Switzerland), 2020).

This assay addresses T1, Or13a cells (OR from Drosophila melanogaster with Orco) (Drosophila melanogaster, UniProt Q9VXL0).
T1 construct: with Odorant receptor coreceptor
T1 sequence (Q9VXL0 1-418): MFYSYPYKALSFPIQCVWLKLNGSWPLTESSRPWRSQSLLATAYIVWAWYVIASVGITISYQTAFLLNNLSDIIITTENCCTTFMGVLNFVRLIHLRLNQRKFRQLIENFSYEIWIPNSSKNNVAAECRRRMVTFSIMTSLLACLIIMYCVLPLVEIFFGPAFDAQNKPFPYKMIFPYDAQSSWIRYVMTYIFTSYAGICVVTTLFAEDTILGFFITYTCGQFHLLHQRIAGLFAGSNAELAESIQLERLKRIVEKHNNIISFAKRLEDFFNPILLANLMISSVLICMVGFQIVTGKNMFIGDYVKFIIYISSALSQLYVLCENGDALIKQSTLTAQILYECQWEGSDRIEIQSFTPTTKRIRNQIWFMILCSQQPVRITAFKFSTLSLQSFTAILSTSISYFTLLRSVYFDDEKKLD
T1 sequence (Q9VNB5 1-486 partner): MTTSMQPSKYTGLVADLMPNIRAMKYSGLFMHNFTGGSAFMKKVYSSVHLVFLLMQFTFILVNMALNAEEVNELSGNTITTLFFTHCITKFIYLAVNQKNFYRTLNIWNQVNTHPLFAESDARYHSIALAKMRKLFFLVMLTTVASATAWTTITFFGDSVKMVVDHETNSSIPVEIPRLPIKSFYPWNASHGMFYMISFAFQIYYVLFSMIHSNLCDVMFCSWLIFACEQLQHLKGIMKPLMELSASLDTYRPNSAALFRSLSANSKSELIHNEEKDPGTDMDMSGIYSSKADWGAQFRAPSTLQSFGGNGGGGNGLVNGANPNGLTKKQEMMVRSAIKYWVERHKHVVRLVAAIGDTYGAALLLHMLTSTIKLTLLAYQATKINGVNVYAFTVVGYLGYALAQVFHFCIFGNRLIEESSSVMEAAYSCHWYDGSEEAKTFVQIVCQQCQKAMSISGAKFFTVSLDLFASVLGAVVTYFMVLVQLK
Kind of assay: GCaMP6s calcium imaging of Sf21 cells, dose-response. In kind it is cell-based.

One may read the EC50 as the concentration at which the effect is half-maximal.

For `C=CC(O)CCCCC` (stereo not shown) [1-octen-3-ol], the EC50 was determined as 8.37 µM.
